Measurements as given in BindingDB's records for doi:10.1021/acs.jmedchem.8b00082 (Abbvie, 2018).

Legend:
[1] = Inhibition of HCV genotype 1b Con1 NS5A expressed in HuH7 cell infected HCV genotype 5a assessed as decrease in viral replication after 3 days by luciferase reporter gene assay
[2] = Inhibition of HCV genotype 1b Con1 NS5A expressed in HuH7 cell infected HCV genotype 4a assessed as decrease in viral replication after 3 days by luciferase reporter gene assay
[3] = Inhibition of HCV genotype 1b Con1 NS5A expressed in HuH7 cell infected HCV genotype 6a assessed as decrease in viral replication after 3 days by luciferase reporter gene assay
[4] = Inhibition of NS5A in HuH7 cell infected HCV genotype 1a H77 assessed as decrease in viral replication after 3 days in presence of 40% human plasma by luciferase reporter gene assay
[5] = Inhibition of HCV genotype 1b Con1 NS5A expressed in HuH7 cell infected HCV genotype 3a assessed as decrease in viral replication after 3 days by luciferase reporter gene assay
[6] = Inhibition of NS5A in HuH7 cell infected HCV genotype 1a H77 assessed as decrease in viral replication after 3 days by luciferase reporter gene assay
[7] = Inhibition of NS5A in HuH7 cell infected HCV genotype 1b Con1 assessed as decrease in viral replication after 3 days in presence of 40% human plasma by luciferase reporter gene assay
[8] = Inhibition of HCV genotype 1b Con1 NS5A expressed in HuH7 cell infected HCV genotype 2a assessed as decrease in viral replication after 3 days by luciferase reporter gene assay
[9] = Inhibition of NS5A in HuH7 cell infected HCV genotype 1b Con1 assessed as decrease in viral replication after 3 days by luciferase reporter gene assay
[10] = Inhibition of HCV genotype 1b Con1 NS5A expressed in HuH7 cell infected HCV genotype 2b assessed as decrease in viral replication after 3 days by luciferase reporter gene assay

Row | SMILES | EC50 [1] [pM] | EC50 [2] [pM] | EC50 [3] [pM] | EC50 [4] [pM] | EC50 [5] [pM] | EC50 [6] [pM] | EC50 [7] [pM] | EC50 [8] [pM] | EC50 [9] [pM] | EC50 [10] [pM]
1 | COC(=O)N[C@H](C(=O)N1CCC[C@H]1c1nc2ccc([C@H]3CC[C@H](c4ccc5nc([C@@H]6CCCN6C(=O)[C@@H](NC(=O)OC)C(C)C)[nH]c5c4)N3c3cc(F)c(N4CCC(c5ccccc5)CC4)c(F)c3)cc2[nH]1)C(C)C | 3 | 4 | 8 | 76 | 6 | 2 | 183 | 8 | 6 | 6
2 | COC(=O)N[C@H](C(=O)N1CCC[C@H]1c1nc2cc(F)c([C@H]3CC[C@H](c4cc5[nH]c([C@@H]6CCCN6C(=O)[C@@H](NC(=O)OC)C6CCOCC6)nc5cc4F)N3c3cc(F)c(N4CCC(c5ccccc5)CC4)c(F)c3)cc2[nH]1)C1CCOCC1 | 6 | 6 | 12 | 136 | 11 | 4 | 337 | 9 | 8 | 8
3 | COC(=O)N[C@H](C(=O)N1CCC[C@H]1c1nc2cc(F)c([C@H]3CC[C@H](c4cc5[nH]c([C@@H]6CCCN6C(=O)[C@@H](NC(=O)OC)C(C)C)nc5cc4F)N3c3cc(F)c(N4CCC(c5ccccc5)CC4)c(F)c3)cc2[nH]1)C(C)C | 2 | 4 | 9 | 58 | 4 | 2 | 135 | 8 | 6 | 3
4 | COC(=O)N[C@H](C(=O)N1CCC[C@H]1c1nc2cc([C@H]3CC[C@H](c4cc5nc([C@@H]6CCCN6C(=O)[C@@H](NC(=O)OC)[C@@H](C)OC)[nH]c5cc4F)N3c3cc(F)c(N4CCC(c5ccc(F)cc5)CC4)c(F)c3)c(F)cc2[nH]1)[C@@H](C)OC [A-1325912.0] | 1.4 | 1.9 | 2.8 | 64 | 2.1 | 1.8 | 200 | 2.3 | 4.3 | 1.9
5 | COC(=O)N[C@H](C(=O)N1CCC[C@H]1C(=O)Nc1ccc([C@@H]2CC[C@@H](c3ccc(NC(=O)[C@@H]4CCCN4C(=O)[C@@H](NC(=O)OC)C(C)C)cc3)N2c2ccc(C(C)(C)C)cc2)cc1)C(C)C [CHEBI:85183] | 3.2 | 1.7 | 366 | 186 | 19 | 14 | 56 | 12 | 5 | 4.3
